Results from article PMC10915170, “New oxadiazole and pyrazoline derivatives as anti-proliferative agents targeting EGFR-TK: design, synthesis, biological evaluation and molecular docking study” (Scientific Reports, 2024).
Values joined by “and” are separate entries in the source; they are usually repeats but may differ in a detail not shown here. Equal values may be shown once. “Also recorded” adds a separate entry of the source. Read-outs that look alike come from different tables or passages of the source.

Experiments:
[1] = test system: EGFR; conditions: cited from earlier work
[2] = test system: HePG-2; assay: MTT anti-proliferative assay, HepG-2; conditions: Homo sapiens, HepG2, read-out: IC50 HePG-2
[3] = test system: HCT116; assay: MTT anti-proliferative assay, HCT116; format: cell-based; conditions: Homo sapiens, HCT-116, mean ± SD of three independent experiments
Protocol: (§1) Doxorubicin (DOX) was used as a reference drug.
(§2) Cell lines were obtained from ATCC via Holding company for biological products and vaccines (VACSERA), Cairo, Egypt. Doxorubicin (Dox.) is used as a standard anticancer drug. This colorimetric assay is based on the conversion of yellow (MTT) to a purple formazan derivative by mitochondrial succinate dehydrogenase in viable cells. This colorimetric assay was performed according to the reported method[36],[37].

[4] = test system: HCT116, HepG-2 and MCF7; assay: MTT assay, all three cancer cell lines (summary range); conditions: Homo sapiens, read-out: IC50 range against all cancer cell lines
[5] = biological target: EGFR-TK (Homo sapiens, UniProt P00533); assay: EGFR-TK inhibition assay
[6] = test system: MCF7; assay: MTT anti-proliferative assay, MCF7; format: cell-based; conditions: Homo sapiens, mean ± SD of three independent experiments
Protocol: as §1, §2

[7] = test system: WI-38; assay: MTT cytotoxicity against normal fibroblast cells WI-38; conditions: Homo sapiens, WI-38, read-out: IC50 WI-38
[8] = test system: MCF-7; conditions: cited from earlier work
[9] = test system: HepG-2 cells; assay: Intracellular ROS accumulation assay (ELISA); format: cell-based, human; conditions: for ROS: HepG-2, mean ± SD of three experiments, control 105.6 ± 10.8
Excerpt: Under both physiological and pathological circumstances, reactive oxygen species (ROS) such H2O2 and superoxides play a significant role in the activation of apoptosis. It's interesting to note that mitochondria both produce and absorb ROS.
Intracellular reactive oxygen species (ROS) were detected by the EIAab ROS ELISA kit according to the reported method.

[10] = biological target: HER4 (Homo sapiens, UniProt Q15303); assay: HER4 inhibition assay
[11] = biological target: HER3 (Homo sapiens, UniProt P21860); assay: HER3 inhibition assay
[12] = test system: BAX, BCL-2, Cyto c, Casp. 6, 7, 9 and Survivin in HepG-2 cells; assay: RT-PCR gene expression of apoptotic markers; format: cell-based, human; conditions: HepG-2, control = 1
Excerpt: The B cell lymphoma-2 (Bcl-2) family of proteins, which includes pro-apoptotic (Bax, Bak, Bid, and Bad) and anti-apoptotic (Bcl-2, Bcl-xL, and Bcl-w) proteins, mediates the mitochondrial or intrinsic apoptosis pathway. These proteins cause apoptosis by influencing the permeability of the mitochondrial membrane, which results in the release of cytochrome c into the cytosol. The Bax/Bcl-2 ratio is frequently employed as a marker of cell death and is essential for controlling mitochondrial cytochrome c release. It is thought that caspases perform critical functions in modulating the mitochondrial pathway. After cytochrome c is released into the cytosol, caspase-9 is triggered. Caspase-9 can activate effector caspases, such as caspase-3, 6 and 7, which cause cells to enter apoptosis. The various target proteins that the effector caspases cleave are widely dispersed throughout the cell, which causes the morphological modifications that are indicative of apoptosis. Apoptosis is inhibited by the anti-apoptotic protein survivin, which regulates the actions of caspase-9 and effector caspases.
Gene expression analysis was performed by using (iScriptTM OneStep RT-PCR Kit with SYBR® Green) from Bio-Rad according to reported procedure.

[13] = test system: HepG-2 cells; assay: Cell cycle analysis by PI flow cytometry; format: cell-based, human
Protocol: Cell cycle analysis for compound 5a was performed using the HepG-2 cell lines stained with propidium iodide (PI) and FACSCalibur flow cytometer as mentioned in previous reports.

[14] = biological target: HER2 (Homo sapiens, UniProt P04626); assay: HER2 inhibition assay
[15] = test system: HepG-2 cells; assay: Annexin V-FITC/Propidium iodide dual staining apoptosis assay; format: cell-based, human; conditions: HepG-2, 24 h
Protocol: Liver HepG-2 cancer cells were used in the Annexin V-FITC/Propidium iodide dual staining assay[40] to calculate the percentage of apoptosis induced by compound 5a. As shown in Figs. 6 and Fig. 7, compound 5a induces the early apoptosis in HepG-2 after 24 h incubation by (19.61%) 41.72 folds over the untreated cells (0.47%). Also, it enhances the late apoptotic induction by 11.89% compared to untreated control (0.16%). Cumulatively, compound 5a induced total apoptosis (35.28%) 14.57 folds over the untreated cells (2.42%).
Apoptosis induction for 5a was performed using the HepG-2 cell lines and well-established Annexin 5-FITC/PI detection kit similar to the reported procedures.

EGFR-TK, sequence (P00533 25-1210): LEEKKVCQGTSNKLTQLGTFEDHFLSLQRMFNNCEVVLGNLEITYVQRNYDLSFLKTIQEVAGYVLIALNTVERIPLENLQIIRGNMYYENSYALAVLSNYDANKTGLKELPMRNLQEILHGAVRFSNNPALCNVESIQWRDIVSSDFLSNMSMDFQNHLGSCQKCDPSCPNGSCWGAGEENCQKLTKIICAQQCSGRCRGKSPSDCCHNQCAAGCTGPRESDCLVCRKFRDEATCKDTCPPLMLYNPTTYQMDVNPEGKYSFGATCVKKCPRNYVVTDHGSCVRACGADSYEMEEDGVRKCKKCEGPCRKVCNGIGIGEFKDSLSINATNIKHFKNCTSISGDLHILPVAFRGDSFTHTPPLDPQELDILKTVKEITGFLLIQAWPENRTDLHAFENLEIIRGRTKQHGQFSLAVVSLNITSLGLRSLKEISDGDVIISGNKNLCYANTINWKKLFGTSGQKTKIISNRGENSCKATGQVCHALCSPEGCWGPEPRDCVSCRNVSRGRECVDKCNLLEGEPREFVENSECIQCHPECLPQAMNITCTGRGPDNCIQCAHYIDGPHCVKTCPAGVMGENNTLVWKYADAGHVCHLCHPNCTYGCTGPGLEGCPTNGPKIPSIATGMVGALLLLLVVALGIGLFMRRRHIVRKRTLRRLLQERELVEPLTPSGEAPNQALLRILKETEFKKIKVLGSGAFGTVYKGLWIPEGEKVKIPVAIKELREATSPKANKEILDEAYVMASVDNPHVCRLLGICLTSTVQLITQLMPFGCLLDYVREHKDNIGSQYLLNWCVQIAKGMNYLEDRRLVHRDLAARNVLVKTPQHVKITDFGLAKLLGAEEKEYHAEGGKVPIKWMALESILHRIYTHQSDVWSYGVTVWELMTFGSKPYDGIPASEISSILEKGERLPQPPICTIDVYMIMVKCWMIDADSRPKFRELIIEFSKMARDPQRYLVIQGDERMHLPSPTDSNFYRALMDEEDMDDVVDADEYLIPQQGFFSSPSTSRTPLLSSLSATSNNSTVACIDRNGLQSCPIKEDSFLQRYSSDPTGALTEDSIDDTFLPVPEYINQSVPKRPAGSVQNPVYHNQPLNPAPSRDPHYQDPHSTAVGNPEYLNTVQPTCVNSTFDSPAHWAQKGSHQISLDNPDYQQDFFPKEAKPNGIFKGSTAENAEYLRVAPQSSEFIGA
HER4, sequence (Q15303 26-1308): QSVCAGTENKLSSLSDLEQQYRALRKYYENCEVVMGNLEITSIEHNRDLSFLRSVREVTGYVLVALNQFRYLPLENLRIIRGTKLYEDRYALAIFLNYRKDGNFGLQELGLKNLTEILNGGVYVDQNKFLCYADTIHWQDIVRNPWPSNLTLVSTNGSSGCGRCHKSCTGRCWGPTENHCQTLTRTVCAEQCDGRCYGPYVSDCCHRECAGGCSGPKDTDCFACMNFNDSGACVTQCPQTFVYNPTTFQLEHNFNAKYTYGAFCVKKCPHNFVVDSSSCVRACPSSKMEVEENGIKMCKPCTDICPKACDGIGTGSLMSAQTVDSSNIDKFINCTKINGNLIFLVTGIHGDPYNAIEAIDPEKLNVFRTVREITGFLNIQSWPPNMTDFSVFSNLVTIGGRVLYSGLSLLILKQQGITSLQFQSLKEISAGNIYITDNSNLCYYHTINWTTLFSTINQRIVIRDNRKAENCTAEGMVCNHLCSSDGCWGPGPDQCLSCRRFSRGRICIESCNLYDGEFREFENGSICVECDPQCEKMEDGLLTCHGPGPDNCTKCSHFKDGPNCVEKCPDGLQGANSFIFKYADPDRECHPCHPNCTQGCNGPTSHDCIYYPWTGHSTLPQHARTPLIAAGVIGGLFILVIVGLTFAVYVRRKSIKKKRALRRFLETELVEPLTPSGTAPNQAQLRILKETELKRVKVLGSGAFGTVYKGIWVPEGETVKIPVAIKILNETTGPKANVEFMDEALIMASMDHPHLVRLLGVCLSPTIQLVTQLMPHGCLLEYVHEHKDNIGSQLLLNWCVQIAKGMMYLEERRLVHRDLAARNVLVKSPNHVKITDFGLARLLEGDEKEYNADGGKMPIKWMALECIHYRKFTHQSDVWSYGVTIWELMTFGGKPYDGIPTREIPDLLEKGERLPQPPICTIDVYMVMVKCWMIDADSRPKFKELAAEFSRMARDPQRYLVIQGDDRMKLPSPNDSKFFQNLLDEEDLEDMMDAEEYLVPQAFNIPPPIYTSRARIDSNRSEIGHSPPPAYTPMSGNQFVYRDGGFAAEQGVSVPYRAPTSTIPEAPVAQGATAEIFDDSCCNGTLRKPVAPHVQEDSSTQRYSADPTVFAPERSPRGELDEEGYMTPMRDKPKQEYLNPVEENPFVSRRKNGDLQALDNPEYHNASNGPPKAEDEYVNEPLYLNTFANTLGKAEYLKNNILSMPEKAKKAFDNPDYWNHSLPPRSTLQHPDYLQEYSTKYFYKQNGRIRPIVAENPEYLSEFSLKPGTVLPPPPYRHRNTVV
HER3, sequence (P21860 20-1342): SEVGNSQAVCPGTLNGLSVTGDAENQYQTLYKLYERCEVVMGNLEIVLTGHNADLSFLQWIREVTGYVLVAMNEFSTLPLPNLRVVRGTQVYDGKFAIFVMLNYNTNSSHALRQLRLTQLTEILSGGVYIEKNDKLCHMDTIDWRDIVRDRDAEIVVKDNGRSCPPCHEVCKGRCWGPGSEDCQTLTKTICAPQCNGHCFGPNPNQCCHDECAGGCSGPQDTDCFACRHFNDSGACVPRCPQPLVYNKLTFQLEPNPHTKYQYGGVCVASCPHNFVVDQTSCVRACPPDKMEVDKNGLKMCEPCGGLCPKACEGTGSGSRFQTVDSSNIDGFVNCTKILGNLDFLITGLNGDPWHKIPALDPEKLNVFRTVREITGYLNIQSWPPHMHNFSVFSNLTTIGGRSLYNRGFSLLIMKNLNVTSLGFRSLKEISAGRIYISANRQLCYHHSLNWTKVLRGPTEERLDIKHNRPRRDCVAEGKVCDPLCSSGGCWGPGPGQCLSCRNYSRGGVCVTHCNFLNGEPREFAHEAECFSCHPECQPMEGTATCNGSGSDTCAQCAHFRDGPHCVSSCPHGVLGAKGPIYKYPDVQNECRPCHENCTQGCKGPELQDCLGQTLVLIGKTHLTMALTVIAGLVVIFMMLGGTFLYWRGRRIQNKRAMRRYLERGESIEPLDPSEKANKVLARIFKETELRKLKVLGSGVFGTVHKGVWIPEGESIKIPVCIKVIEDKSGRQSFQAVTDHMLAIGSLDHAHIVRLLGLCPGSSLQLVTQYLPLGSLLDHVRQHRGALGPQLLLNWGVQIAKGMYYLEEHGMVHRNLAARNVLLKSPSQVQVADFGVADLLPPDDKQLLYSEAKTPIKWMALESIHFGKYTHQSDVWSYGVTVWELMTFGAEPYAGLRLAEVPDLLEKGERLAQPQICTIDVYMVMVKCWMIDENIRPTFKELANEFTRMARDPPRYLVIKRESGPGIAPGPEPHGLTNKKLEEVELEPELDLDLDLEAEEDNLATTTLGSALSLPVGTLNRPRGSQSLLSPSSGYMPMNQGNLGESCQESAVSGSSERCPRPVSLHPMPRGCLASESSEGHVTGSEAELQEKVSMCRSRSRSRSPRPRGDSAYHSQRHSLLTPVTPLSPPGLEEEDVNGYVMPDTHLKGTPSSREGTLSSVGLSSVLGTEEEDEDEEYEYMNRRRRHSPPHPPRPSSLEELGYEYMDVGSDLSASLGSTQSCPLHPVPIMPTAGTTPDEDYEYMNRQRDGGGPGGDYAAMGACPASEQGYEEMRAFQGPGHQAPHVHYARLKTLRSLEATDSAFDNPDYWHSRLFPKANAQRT
HER2, sequence (P04626 23-1255): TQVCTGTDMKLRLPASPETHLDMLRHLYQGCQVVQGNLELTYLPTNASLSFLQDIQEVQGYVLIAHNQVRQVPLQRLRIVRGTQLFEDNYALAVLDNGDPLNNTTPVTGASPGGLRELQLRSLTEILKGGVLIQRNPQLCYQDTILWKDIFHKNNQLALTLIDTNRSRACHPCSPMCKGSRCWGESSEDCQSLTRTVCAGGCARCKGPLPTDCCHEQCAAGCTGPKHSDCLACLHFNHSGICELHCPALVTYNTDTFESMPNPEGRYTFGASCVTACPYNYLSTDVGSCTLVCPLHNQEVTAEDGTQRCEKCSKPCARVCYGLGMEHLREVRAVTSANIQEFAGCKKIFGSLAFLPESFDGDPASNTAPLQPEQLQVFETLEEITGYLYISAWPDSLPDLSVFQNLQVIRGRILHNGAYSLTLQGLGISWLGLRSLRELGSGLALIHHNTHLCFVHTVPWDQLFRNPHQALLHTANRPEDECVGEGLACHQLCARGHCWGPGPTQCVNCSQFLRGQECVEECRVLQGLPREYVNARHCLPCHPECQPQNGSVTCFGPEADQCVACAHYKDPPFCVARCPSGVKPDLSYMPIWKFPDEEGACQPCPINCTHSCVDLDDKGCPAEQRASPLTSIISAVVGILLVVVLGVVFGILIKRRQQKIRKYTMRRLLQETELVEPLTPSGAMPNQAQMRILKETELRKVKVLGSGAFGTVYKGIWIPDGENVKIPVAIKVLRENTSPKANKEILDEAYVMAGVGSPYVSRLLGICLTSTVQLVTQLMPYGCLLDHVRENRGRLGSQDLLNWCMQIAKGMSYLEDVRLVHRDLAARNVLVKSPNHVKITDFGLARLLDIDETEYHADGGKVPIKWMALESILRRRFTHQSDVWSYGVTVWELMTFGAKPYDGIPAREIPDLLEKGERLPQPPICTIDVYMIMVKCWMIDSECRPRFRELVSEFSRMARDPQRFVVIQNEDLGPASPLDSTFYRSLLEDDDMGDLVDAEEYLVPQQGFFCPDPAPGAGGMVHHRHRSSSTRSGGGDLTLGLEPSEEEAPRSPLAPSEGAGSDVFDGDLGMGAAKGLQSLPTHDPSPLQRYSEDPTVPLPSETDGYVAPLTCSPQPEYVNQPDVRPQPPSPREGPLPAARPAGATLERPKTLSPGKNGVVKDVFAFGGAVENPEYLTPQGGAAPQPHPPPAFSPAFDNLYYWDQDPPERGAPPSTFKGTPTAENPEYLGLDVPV

Row | melting point | IC50 [3] | IC50 [6] | Compound | IC50 [2] | IC50 [7] | further results
1 | – | – | – | O=C(CSc1nnc(-c2ccc3nccnc3c2)o1)c1ccc([N+](=O)[O-])cc1 [II] | – | – | IC50 [1]: 0.95 µM
2 | 128 to 130 °C | 5.55 ± 0.3 µM | 2.86 ± 0.1 µM | COc1ccc(C2CC(c3ccc(OCc4ccccc4)cc3)=NN2)cc1OC (stereo not shown) [Compound 10c, 3-(4-(Benzyloxy)phenyl)-5-(3,4-dimethoxyphenyl)-4,5-dihydro-1H-pyrazole] | 1.82 ± 0.1 µM | 41.2 ± 2.4 µM | IC50 [4]: 1.82 to 5.55 µM; IC50 [5]: 0.27 ± 0.01 µM
3 | – | – | – | Nc1cc(-c2nnc(SCC(=O)c3ccccc3)o2)ccn1 [I] | – | – | IC50 [8]: 0.01 µM
4 | – | – | – | CC(=O)N1N=C(c2ccc(-c3cncnc3)cc2)CC1c1ccc(F)cc1 (stereo not shown) [V] | – | – | EGFR inhibition rate ([1]; 0.19 μM concentration): 83%; EGFR inhibition rate ([1]; 50 μM concentration): 82%
5 | 100 to 102 °C | > 100 µM | > 100 µM | CCOC(=O)CSc1nnc(-c2ccc(OCc3ccccc3)cc2)o1 [Compound 5f., Ethyl 2-((5-(4-(benzyloxy)phenyl)-1,3,4-oxadiazol-2-yl)thio)acetate] | 91.3 ± 5 µM | 77.3 ± 3.9 µM | –
6 | 85 to 87 °C | 16.2 ± 1.2 µM | 8.53 ± 0.6 µM | COc1ccc(C2CC(c3ccc(OCc4ccccc4)cc3)=NN2C(C)=O)cc1OC (stereo not shown) [Compound 9c, 1-(3-(4-(Benzyloxy)phenyl)-5-(3,4-dimethoxyphenyl)-4,5-dihydro-1H-pyrazol-1-yl)ethan-1-one] | 12.2 ± 0.9 µM | 49.6 ± 2.8 µM | –
7 | 83 to 85 °C | 88.6 ± 4.8 µM | > 100 µM | c1ccc(COc2ccc(-c3nnc(SC4CCCCCC4)o3)cc2)cc1 [Compound 5d, 2-(4-(Benzyloxy)phenyl)-5-(cycloheptylthio)-1,3,4-oxadiazole] | 82.8 ± 4.5 µM | 46.6 ± 2.7 µM | –
8 | 130 to 132 °C | 79.8 ± 4.4 µM | 92.2 ± 4.9 µM | Cc1ccc(CSc2nnc(-c3ccc(OCc4ccccc4)cc3)o2)cc1 [Compound 5c, 2-(4-(Benzyloxy)phenyl)-5-((4-methylbenzyl)thio)-1,3,4-oxadiazole] | 71.4 ± 3.9 µM | > 100 µM | –
9 | 125 to 127 °C | 73.2 ± 4.2 µM | 84.3 ± 4.4 µM | Clc1ccc(CSc2nnc(-c3ccc(OCc4ccccc4)cc3)o2)cc1 [Compound 5b, 2-(4-(Benzyloxy)phenyl)-5-((4-chlorobenzyl)thio)-1,3,4-oxadiazole] | 38.1 ± 2.2 µM | 13.2 ± 1.1 µM | –
10 | – | – | – | NC(=O)N1N=C(c2ccncc2)CC1c1cn(-c2ccccc2)nc1-c1ccc(OCc2ccccc2)cc1 (stereo not shown) [VI] | – | – | IC50 [1]: 3.65 µM
11 | 86 to 88 °C | 9.94 ± 0.8 µM | 8.11 ± 0.6 µM | Brc1cccc(C2CC(c3ccc(OCc4ccccc4)cc3)=NN2)c1 (stereo not shown) [Compound 10a, 3-(4-(Benzyloxy)phenyl)-5-(3-bromophenyl)-4,5-dihydro-1H-pyrazole] | 6.32 ± 0.4 µM | 62.3 ± 3.4 µM | IC50 [5]: 0.7 ± 0.03 µM
12 | 127 to 129 °C | 10.2 ± 0.9 µM | 15.2 ± 1.2 µM | CC(=O)N1N=C(c2ccc(OCc3ccccc3)cc2)CC1c1cccc([N+](=O)[O-])c1 (stereo not shown) [Compound 9b, 1-(3-(4-(Benzyloxy)phenyl)-5-(3-nitrophenyl)-4,5-dihydro-1H-pyrazol-1-yl)ethan-1-one] | 7.83 ± 0.5 µM | 55.9 ± 3.2 µM | IC50 [5]: 0.2 ± 0.01 µM
13 | 93 to 95 °C | 55.3 ± 3.1 µM | 46.1 ± 2.5 µM | CC(=O)N1N=C(c2ccc(OCc3ccccc3)cc2)CC1c1cccc(Br)c1 (stereo not shown) [Compound 9a, 1-(3-(4-(Benzyloxy)phenyl)-5-(3-bromophenyl)-4,5-dihydro-1H-pyrazol-1-yl)ethan-1-one] | 32.6 ± 2.1 µM | 85.1 ± 4.1 µM | –
14 | – | – | – | Nc1ccccc1-c1nnc(SCc2ccccc2)o1 [III] | – | – | IC50 [1]: 1.51 µM
15 | – | – | – | COc1cccc2c1C(=O)c1c(O)c3c(c(O)c1C2=O)C[C@@](O)(C(=O)CO)C[C@@H]3O[C@H]1C[C@H](N)[C@H](O)[C@H](C)O1 [DOX, Doxorubicin, reference compound] | 4.5 ± 0.2 µM | – | –
16 | – | – | – | COc1cc2ncnc(Nc3ccc(F)c(Cl)c3)c2cc1OCCCN1CCOCC1 [Gefitinib, reference compound] | – | – | ROS [9]: 260 ± 14.7 pg/mL; ROS ([9]; listed as gefitinib): 260 pg/mL
17 | – | 64.4 ± 3.7 µM | 78.5 ± 4.1 µM | c1ccc(COc2ccc(-c3nnc(SCc4ccccc4)o3)cc2)cc1 [Compound 5a, 2-(4-(Benzyloxy)phenyl)-5-(benzylthio)-1,3,4-oxadiazole] | 35.6 ± 2.2 µM | 53.9 ± 3 µM | IC50 [10]: 0.37 ± 0.015 µM; IC50 [11]: 0.18 ± 0.006 µM; RT-PCR Fold Change Bax [12]: 4.95 fold; RT-PCR Fold Change Casp. 6 [12]: 6.67 fold; RT-PCR Fold Change Casp. 7 [12]: 7.57 fold; RT-PCR Fold Change Casp. 9 [12]: 4.23 fold; RT-PCR Fold Change Cyto c [12]: 3.82 fold; Comment (cell cycle arrest phase) ([13]; HepG-2, 24 h): arrested the cell cycle on HepG-2 at a G1/S phase; also recorded: cell cycle arrest at G1/S phase; also recorded: cell growth arrest at G1/S; %G2/M ([13]; HepG-2, IC50 concentration, 24 h, untreated control 17.05): 6.64%; %S ([13]; HepG-2, IC50 concentration, 24 h, untreated control 37.09): 41.03%; %G0-G1 ([13]; HepG-2, IC50 concentration, 24 h, untreated control 45.86): 52.33%; IC50 [14]: 0.72 ± 0.028 µM; IC50 [5]: 0.09 µM; early apoptosis, folds over the untreated cells [15]: 41.72 folds; total apoptosis, folds over the untreated cells [15]: 14.57 folds; late apoptosis (Q2) ([15]; untreated 0.16%): 11.89%; early apoptosis (Q4) ([15]; untreated 0.47%): 19.61%; ROS [9]: 247.8 pg/mL and 247.8 ± 31.1 pg/mL; ROS Fold ([9]; HepG-2, versus control = 1): 2.34 fold
18 | 91 to 93 °C | 75.6 ± 4.2 µM | 86.8 ± 4.5 µM | c1ccc(COc2ccc(-c3nnc(SC4CCCC4)o3)cc2)cc1 [Compound 5e, 2-(4-(Benzyloxy)phenyl)-5-(cyclopentylthio)-1,3,4-oxadiazole] | 59.3 ± 3.4 µM | 11.7 ± 0.9 µM | –
19 | – | – | – | COc1ccc(C2=NN(C(C)=O)C(/C=C/c3ccccc3)C2)cc1 (stereo not shown) [IV] | – | – | IC50 [8]: 4.33 µM; IC50 [1]: 0.46 µM
20 | 108 to 110 °C | 8.73 ± 0.7 µM | 5.97 ± 0.3 µM | O=[N+]([O-])c1cccc(C2CC(c3ccc(OCc4ccccc4)cc3)=NN2)c1 (stereo not shown) [Compound 10b, 3-(4-(Benzyloxy)phenyl)-5-(3-nitrophenyl)-4,5-dihydro-1H-pyrazole] | 3.98 ± 0.2 µM | 37.9 ± 2.3 µM | IC50 [5]: 0.16 µM
